Reference: patent US8771965B2, “Methods and compositions involving nucleotide repeat disorders” (The Board of Regents of the University of Texas System, priority 2006, dated 2014)

Tests used:
Assay type in all cases: cell-based, human
[1] = system: γ-secretase; assay: γ-secretase activity blocked in DM1 myoblasts, NOTCH1 level; details: pharmacological inhibition of γ-secretase
[2] = system: DM1 myoblasts; assay: Myogenic differentiation of treated DM1 myoblasts in differentiation media (myotubes, myogenin, MyoD)
Description: The above findings supported the possibility that a significant amount of SKELETROPHIN remained bound with the mutant DMPK transcripts within DM1 nuclei, which results in diminished SKELETROPHIN activity in DM1. The attenuated SKELETROPHIN activity then manifests with an increase in JAGGED2 activity, leading to chronic activation of Notch signaling in DM1. Based on these findings we hypothesize that the activated Notch attenuates the ability of DM1 myoblasts to progress toward myogenic lineage, while facilitating their proliferation. To more critically test this idea, DMPK transcripts were targeted in DM1 myoblasts using siRNA and JAGGED2 and NOTCH1 expression was measured, in addition to an assessment of the cells' myogenic properties. DMPK transcripts were targeted to minimize interactions of SKELETROPHIN with CUG RNA, thereby increasing SKELETROPHIN activity. […] JAGGED2 and NOTCH1 levels were measured in the DMPK-siRNA-treated cells. […] In contrast, DM1 myoblasts treated with control siRNA formed fewer and shorter myotubes as well as basal myogenin expression under identical conditions.
Whether attenuating Notch signaling improves the myogenic potential of DM1 myoblasts was assessed. To achieve this goal, JAGGED2 was targeted in DM1 myoblasts with siRNA.
(§1) The above results support the idea that diminished SKELETROPHIN activity results in elevated Notch signaling and activated Notch impairs the efficacy of myoblast differentiation in DM1. To obtain more direct evidence for this interpretation, SKELETROPHIN was overexpressed in DM1 myoblasts and the Notch activity and their myogenic properties were assessed.
The progression of myogenesis was quantified by monitoring the expression of myogenic markers, myogenin and MyoD. […] In contrast, untreated DM1 myoblasts show reduced myogenin and MyoD even after prolonged incubation in differentiation media.

[3] = system: Notch signaling; assay: SKELETROPHIN overexpression in DM1 myoblasts, Notch activity
Procedure: as §1

In the case of `CC(C)C[C@H](NC(=O)[C@H](Cc1ccccc1)C[C@@H](O)[C@H](Cc1ccccc1)NC(=O)OC(C)(C)C)C(=O)N[C@@H](Cc1ccccc1)C(N)=O` [L-685458], the NOTCH1 level [1] is reported as “dose-dependent reduction”, the MyoD expression [2] is reported as “increase” and the “formation of multinucleated myotubes” value [2] is reported as “higher propensity to form multi-nucleated myotubes”. The myogenin expression [2] was “increase”.

B1: SKELETROPHIN: E3 ubiquitin ligase for Jagged2, overexpressed in DM1 myoblasts (protein, listed as Homo sapiens)
chain: MRWKCRVCLDYDLCTQCYMHNKHELAHAFDRYETAHSRPVTLSPRQGLPRIPLRGIFQGAKVVRGPDWEWGSQDGGEGKPGRVVDIRGWDVETGRSVASVTWADGTTNVYRVGHKGKVDLKCVGEAAGGFYYKDHLPRLGKPAELQRRVSADSQPFQHGDKVKCLLDTDVLREMQEGHGGWNPRMAEFIGQTGTVHRITDRGDVRVQFNHETRWTFHPGALTKALGRVGKVVKVFGDGNLRVAVAGQRWTFSPSCLVAYRPEEDANLDVAERARENKSSLSVALDKLRAQKSDPEHPGRLVVEVALGNAARALDLLRRRPEQVDTKNQGRTALQVAAYLGQVELIRLLLQARAGVDLPDDEGNTALHYAALGNQPEATRVLLSAGCRADAINSTQSTALHVAVQRGFLEVVRALCERGCDVNLPDAHSDTPLHSAISAGTGASGIVEVLTEVPNIDVTATNSQGFTLLHHASLKGHALAVRKILARARQLVDAKKEDGFTALHLAALNNHREVAQILIREGRCDVNVRNRKLQSPLHLAVQQAHVGLVPLLVDAGCSVNAEDEEGDTALHVALQRHQLLPLVADGAGGDPGPLQLLSRLQASGLPGSAELTVGAAVACFLALEGADVSYTNHRGRSPLDLAAEGRVLKALQGCAQRFRERQAGGGAAPGPRQTLGTPNTVTNLHVGAAPGPEAAECLVCSELALLVLFSPCQHRTVCEECARRMKKCIRCQVVVSKKLRPDGSEVASAAPAPGPPRQLVEELQSRYRQMEERITCPICIDSHIRLVFQCGHGACAPCGSALSACPICRQPIRDRIQIFV
With B1 the “formation of multinucleated myotubes” value [2] was “a large number of these myoblasts differentiated”, the myogenin expression [2] was “pronounced myogenin expressions” and the NOTCH1 level [3] was “significant reduction”. The Notch signaling ([3]; n=4, P=0.0031) was “significant reduction”.
